According to ChEMBL document CHEMBL1201862, “PubChem BioAssay data set” (2004):
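Five concentrations, 48 hours, 96-well plates. GI50 marks 50% less growth.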 The source made the active and inactive calls. Cut-off read from the data, not from the text of the source: active = GI50 up to about 1.1 µM and inactive = higher.

What was measured:
Test in all cases: NCI anticancer screen, dose series, 48 h
OVCAR-4 = system: OVCAR-4
CAKI-1 = system: CAKI-1
Hs-578T = system: Hs-578T
IGROV-1 = system: IGROV-1
Malme-3M = system: Malme-3M
M14 = system: M14
MDA-N = system: MDA-N
UACC-257 = system: UACC-257
SF-539 = system: SF-539
DU-145 = system: DU-145
HCT-116 = system: HCT-116
NCI-H522 = system: NCI-H522
786-0 = system: 786-0
HL-60 = system: HL-60
OVCAR-3 = system: OVCAR-3
LOX IMVI = system: LOX IMVI
NCI-H226 = system: NCI-H226
OVCAR-5 = system: OVCAR-5
SK-OV-3 = system: SK-OV-3
U-251 = system: U-251

Measured: GI50

Cc1cc2cc3c(O)nc(O)nc3nc2cc1C
inactive: OVCAR-4 > 100 µM | CAKI-1 > 100 µM | Hs-578T > 100 µM | IGROV-1 > 100 µM | Malme-3M > 100 µM | M14 > 100 µM | MDA-N > 100 µM | UACC-257 > 100 µM | SF-539 > 100 µM | DU-145 > 100 µM | HCT-116 > 100 µM | NCI-H522 > 100 µM | 786-0 > 100 µM | HL-60 > 100 µM | OVCAR-3 > 100 µM | LOX IMVI > 100 µM | NCI-H226 > 100 µM | OVCAR-5 > 100 µM | SK-OV-3 > 100 µM | U-251 > 100 µM

N#CC1(Nc2ccc(-c3ccc(NC4(C#N)CCCC4)cc3)cc2)CCCC1
inactive: OVCAR-4 > 100 µM | CAKI-1 > 100 µM | Hs-578T > 100 µM | IGROV-1 > 100 µM | Malme-3M > 100 µM | M14 > 100 µM | MDA-N > 100 µM | UACC-257 > 100 µM | SF-539 11.8 µM | DU-145 > 100 µM | HCT-116 > 100 µM | NCI-H522 > 100 µM | 786-0 > 100 µM | HL-60 > 100 µM | OVCAR-3 > 100 µM | LOX IMVI > 100 µM | NCI-H226 > 100 µM | OVCAR-5 > 100 µM | SK-OV-3 > 100 µM | U-251 > 100 µM

Cc1ccc(C)n1-c1ccccc1C1C=CN(C(=O)OC(C)(C)C)C=C1
inactive: OVCAR-4 71.4 µM | CAKI-1 33.3 µM | Hs-578T 37.8 µM | IGROV-1 31.4 µM | Malme-3M 15.7 µM | M14 28.8 µM | MDA-N 46.2 µM | UACC-257 34.7 µM | SF-539 46.3 µM | DU-145 56.4 µM | HCT-116 15 µM | NCI-H522 16.6 µM | 786-0 31.8 µM | HL-60 32.7 µM | OVCAR-3 17.8 µM | LOX IMVI 20.5 µM | NCI-H226 14.1 µM | OVCAR-5 29.6 µM | SK-OV-3 > 100 µM | U-251 26.3 µM

O=C(O)Cc1ccccc1 [PHENYLACETIC ACID]
inactive: OVCAR-4 > 100 µM | CAKI-1 > 100 µM | Hs-578T > 100 µM | IGROV-1 > 100 µM | Malme-3M > 100 µM | M14 > 100 µM | MDA-N > 100 µM | UACC-257 > 100 µM | SF-539 > 100 µM | DU-145 > 100 µM | HCT-116 > 100 µM | NCI-H522 > 100 µM | 786-0 > 100 µM | HL-60 > 100 µM | OVCAR-3 > 100 µM | LOX IMVI > 100 µM | NCI-H226 > 100 µM | OVCAR-5 > 100 µM | SK-OV-3 > 100 µM | U-251 > 100 µM
